Reference: US11814376B2, “Hepatitis b core protein modulators” (Assembly Biosciences, Inc., priority 2015, dated 2023)

Key:
[1] = system: AD38 cells; test: Viability of AD38 cells (Promega CellTiter-Glo); type: cell-based; details: 10 μM compound, 6 days, CellTiter-Glo luminescence normalized to DMSO control (100%)
Procedure, shortened: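 AD38 cells were seeded at 50,000/well on collagen-coated plates and treated with compound added as a 10× solution in 10% DMSO for 6 days at 37° C. Viability was measured by CellTiter-Glo luminescence in tetracycline-free medium with 2% FBS and 1% DMSO, and expressed as percent of DMSO control.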

[2] = system: HBV viral load in AD38 cells; test: Viral load production in AD38 cells, quantitative PCR of the core sequence in supernatant; type: cell-based; details: 10 μM compound, 6 days at 37° C., supernatant qPCR, relative to DMSO control; for activity at 10 µM: Hepatitis B virus, 144 h, read-out: AD38 Viral Load (%) (VL with cmpd/VL in DMSO control) at 10 μM

SMILES	AD38 Viability Normalized Result (cmpd/DMSO %) at 10 μM [1] [%]	activity at 10 µM [2] [%]	AD38 Viral Load (%) (VL with cmpd/VL in DMSO control) at 10 μM [2]
Cc1c(C(=O)NCc2cnc(-c3ccccn3)s2)ccc2c1NC(=O)c1ccccc1S2(=O)=O [compound 11077]	90	0.9	–
CCOC(=O)c1cnn(-c2ncc(CNC(=O)c3ccc4c(c3)NC(=O)c3ccccc3S4(=O)=O)s2)c1 [compound 11116]	97	0.9	–
CN(C)c1ncc(-c2ncc(CNC(=O)c3ccc4c(c3)NC(=O)c3ccccc3S4(=O)=O)s2)cn1 [compound 1675]	115	2.3	–
O=C(NCc1cnc(-c2ccc(O)c(Cl)c2)s1)c1ccc2c(c1)NC(=O)c1ccccc1O2 [compound 1702]	102	5.3	–
CCN(CC)CCCCc1cnn(-c2ncc(CNC(=O)c3ccc4c(c3)NC(=O)c3ccccc3S4(=O)=O)s2)c1 [compound 11100]	102	6.8	–
Cn1ccc(-c2ncc(CNC(=O)c3ccc4c(c3)NC(=O)c3ccccc3S4(=O)=O)s2)n1 [compound 11046]	100	0.9	–
CC(C)c1ncc(CNC(=O)c2ccc3c(c2)NC(=O)c2ccccc2S3(=O)=O)s1 [compound 1552]	102	0.4	–
Cc1cc2c(cc1C(=O)NCc1cnc(C(F)(F)F)s1)NC(=O)c1ccccc1S2(=O)=O [compound 1910]	94	19	–
CN(Cc1cnc(-c2ccc(O)cc2)s1)C(=O)c1ccc2c(c1)NC(=O)c1ccccc1S2(=O)=O [compound 1661]	90	45.2	–
O=C(NCc1cnc(N2CCCCC(O)C2)s1)c1ccc2c(c1)NC(=O)c1ccccc1S2(=O)=O (centres unmarked) [compound 1908]	94	7	–
CN(C)CCOc1ncc(CNC(=O)c2ccc3c(c2)NC(=O)c2ccccc2S3(=O)=O)s1 [compound 1586, N-((2-(2-(dimethylamino)ethoxy)thiazol-5-yl)methyl)-11-oxo-10, 11-dihydrodibenzo [b, f] [1, 4] thiazepine-8-carboxamide 5,5-dioxide]	83	27.9	–
CCN(CC)CC(O)COc1ccc(-c2ncc(CNC(=O)c3ccc4c(c3)NC(=O)c3ccccc3S4(=O)=O)s2)cc1 (centres unmarked) [compound 11086]	88	4.7	–
Cl.NCc1ccc(-c2ncc(CNC(=O)c3ccc4c(c3)NC(=O)c3ccccc3S4(=O)=O)s2)cc1 [compound 1654, N-((2-(4-(aminomethyl)phenyl)thiazol-5-yl)methyl)-11-oxo-10, 11-dihydrodibenzo [b, f] [1, 4] thiazepine-8-carboxamide 5,5-dioxide hydrochloride]	94	0.5	–
O=C(NCc1cnc(-c2ccc(OCCCN3CCC[C@H]3C(=O)O)cc2)s1)c1ccc2c(c1)NC(=O)c1ccccc1S2(=O)=O [compound 11106, (3-(4-(5-((5,5-dioxido-11-oxo-10, 11-dihydrodibenzo [b, f] [1, 4]thiazepine-8-carboxamido)methyl)thiazol-2-yl)phenoxy)propyl)-L-proline]	97	3.3	–
CC(C)(C)OC(=O)NCCNC(=O)c1ccc(-c2ncc(CNC(=O)c3ccc4c(c3)NC(=O)c3ccccc3S4(=O)=O)s2)cc1 [11017-A, tert-butyl (2-(4-(5-((5,5-dioxido-11-oxo-10, 11-dihydrodibenzo [b, f] [1, 4]thiazepine-8-carboxamido)methyl)thiazol-2-yl)benzamido)ethyl)carbamate]	102	8.8	–
O=C(NCc1cnc(-c2ccc(OCC3CNC3)cc2)s1)c1ccc2c(c1)NC(=O)c1ccccc1S2(=O)=O.O=C(O)C(F)(F)F [compound 1995, N-((2-(4-(azetidin-3-ylmethoxy)phenyl)thiazol-5-yl)methyl)-11-oxo-10, 11-dihydrodibenzo [b, f] [1, 4] thiazepine-8-carboxamide 5,5-dioxide TFA salt]	103	16.3	–

SMILES	AD38 Viability Normalized Result (cmpd/DMSO %) at 10 μM [1] [%]	activity at 10 µM [2] [%]	AD38 Viral Load (%) (VL with cmpd/VL in DMSO control) at 10 μM [2]
CCOC(=O)/C=C/c1cnn(-c2ncc(CNC(=O)c3ccc4c(c3)NC(=O)c3ccccc3S4(=O)=O)s2)c1 [compound 11118]	95	1.9	–
CC(C)(C)OC(=O)N1CCN(C(=O)c2ccc(-c3ncc(CNC(=O)c4ccc5c(c4)NC(=O)c4ccccc4S5(=O)=O)s3)cc2)CC1 [11016-A, tert-butyl 4-(4-(5-((5,5-dioxido-11-oxo-10, 11-dihydrodibenzo [b, f] [1, 4]thiazepine-8-carboxamido)methyl)thiazol-2-yl)benzoyl) piperazine-1-carboxylate]	103	–	6.7
CS(=O)(=O)c1ccc(-c2ncc(CNC(=O)c3ccc4c(c3)NC(=O)c3ccccc3S4(=O)=O)s2)cc1 [compound 1855]	102	2.5	–
CCCCN1c2ccc(C(=O)NCc3cnc(C(F)(F)F)s3)cc2NC(=O)c2ccccc21 [compound 1922]	39	60.3	–
CC(C)(C)NC(=O)c1ccc(-c2ncc(CNC(=O)c3ccc4c(c3)NC(=O)c3ccccc3S4(=O)=O)s2)cc1 [compound 1947]	101	2.3	–
CCN(CC)CCCOc1ccc(-c2ncc(CNC(=O)c3ccc4c(c3)NC(=O)c3ccccc3O4)s2)cc1.Cl [compound 11162, N-((2-(4-(3-(diethylamino)propoxy)phenyl)thiazol-5-yl)methyl)-11-oxo-10, 11-dihydrodibenzo [b, f] [1, 4] oxazepine-8-carboxamide hydrochloride]	104	8.7	–
Cc1ncc(CNC(=O)c2ccc3c(c2)NC(=O)c2ccccc2S3(=O)=O)s1 [compound 1528]	76	0.8	–
Cl.NCCCOc1ccc(-c2ncc(CNC(=O)c3ccc4c(c3)NC(=O)c3ccccc3S4(=O)=O)s2)cc1 [compound 1988, N-((2-(4-(3-aminopropoxy)phenyl)thiazol-5-yl)methyl)-11-oxo-10, 11-dihydrodibenzo [b, f] [1, 4] thiazepine-8-carboxamide 5,5-dioxide hydrochloride]	103	1.3	–
COc1ncc(-c2ncc(CNC(=O)c3ccc4c(c3)NC(=O)c3ccccc3O4)s2)cn1 [1709-A, N-((2-(2-methoxypyrimidin-5-yl)thiazol-5-yl)methyl)-11-oxo-10, 11-dihydrodibenzo [b, f] [1, 4] oxazepine-8-carboxamide]	106	29.5	–
O=C(NCc1cnc(N2CCCCC2)s1)c1ccc2c(c1)NC(=O)c1ccccc1S2(=O)=O [compound 1905]	109	0.3	–
O=C(NCc1cnc(-c2ccccc2CCO)s1)c1ccc2c(c1)NC(=O)c1ccccc1S2(=O)=O [compound 1839, N-((2-(2-(2-hydroxyethyl)phenyl)thiazol-5-yl)methyl)-11-oxo-10, 11-dihydrodibenzo [b, f] [1, 4] thiazepine-8-carboxamide 5,5-dioxide]	96	6.6	–
CC(C)c1ncc(CNC(=O)c2ccc3c(c2)NC(=O)c2ccccc2O3)s1 [compound 1559]	87	0.7	–
CN1CCC(COc2ccc(-c3ncc(CNC(=O)c4ccc5c(c4)NC(=O)c4ccccc4S5(=O)=O)s3)cc2)CC1.Cl [compound 11138, N-((2-(4-((1-methylpiperidin-4-yl)methoxy)phenyl)thiazol-5-yl)methyl)-11-oxo-10, 11-dihydrodibenzo [b, f] [1, 4] thiazepine-8-carboxamide 5,5-dioxide hydrochloride]	96	1	–
COc1c(C)cc(-c2ncc(CNC(=O)c3ccc4c(c3)NC(=O)c3ccccc3O4)s2)cc1C [1738-A]	104	1.8	–
COc1ccc(Cc2ncc(CNC(=O)c3ccc4c(c3)NC(=O)c3ccccc3O4)s2)cc1 [1835-A, N-((2-(4-methoxybenzyl)thiazol-5-yl)methyl)-11-oxo-10, 11-dihydrodibenzo [b, f] [1, 4] oxazepine-8-carboxamide]	89	0.3	–
